# From patent EP0863148A1, “Compounds derived from adenosine, use of such compound as a medicament, method for synthesizing such a compound and intermediates thereof” (K.U. LEUVEN RESEARCH & DEVELOPMENT, priority 1997, dated 1998)
# Columns and labels:
# [1] = target: T1, adenosine A1 receptor (Rattus norvegicus, UniProt P25099); assay: Radioligand binding assay, displacement of [3H]DPCPX, in the absence and presence of 1 mM GTP; settings: for Ki: rat brain cortex, [3H]DPCPX; for GTP shift: ratio of the apparent Ki values in the presence and absence of 1 mM GTP
# T1 construct: adenosine A1 receptor in rat brain cortex; from tissue; host or cells: rat brain cortex
# T1 sequence (P25099 1-326): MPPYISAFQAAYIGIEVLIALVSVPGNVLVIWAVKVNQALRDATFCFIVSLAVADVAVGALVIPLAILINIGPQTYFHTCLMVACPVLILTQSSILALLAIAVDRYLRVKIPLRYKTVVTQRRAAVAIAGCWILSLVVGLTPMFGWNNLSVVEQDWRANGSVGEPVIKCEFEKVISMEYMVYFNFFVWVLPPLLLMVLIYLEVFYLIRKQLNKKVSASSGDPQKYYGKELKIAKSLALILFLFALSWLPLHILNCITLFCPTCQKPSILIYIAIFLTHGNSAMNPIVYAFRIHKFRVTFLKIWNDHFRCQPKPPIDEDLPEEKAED
# Experimental: The compounds were assayed for A1 affinity (Ki values expressed in µM) using the tritiated antagonist [^3H]-1,3-dipropyl-8-cyclopentylxanthine (DPCPX). Displacement experiments were performed in the absence and presence of 1 mM GTP, allowing the determination of the GTP shift (i.e., the ratio of the apparant Ki values in the presence and absence of GTP, respectively). This shift is an in vitro parameter often indicative for intrinsic activity.
# [2] = target: T2, A1 receptor (Homo sapiens, UniProt P30542); settings: cited from earlier work
# T2 sequence (P30542 1-326): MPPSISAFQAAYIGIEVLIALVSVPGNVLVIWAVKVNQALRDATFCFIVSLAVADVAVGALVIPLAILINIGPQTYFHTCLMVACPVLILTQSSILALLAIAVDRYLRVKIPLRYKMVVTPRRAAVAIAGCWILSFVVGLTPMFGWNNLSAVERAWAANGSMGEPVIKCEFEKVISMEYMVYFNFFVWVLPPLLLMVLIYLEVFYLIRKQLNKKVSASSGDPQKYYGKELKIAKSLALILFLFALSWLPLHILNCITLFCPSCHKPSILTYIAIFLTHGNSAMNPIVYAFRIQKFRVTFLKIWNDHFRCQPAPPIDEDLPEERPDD
# [3] = system: A2a receptors; assay: Selectivity for A1 vs A2a receptors (method not described); type: binding
# Chain of A2a receptors (P29274 whole entry): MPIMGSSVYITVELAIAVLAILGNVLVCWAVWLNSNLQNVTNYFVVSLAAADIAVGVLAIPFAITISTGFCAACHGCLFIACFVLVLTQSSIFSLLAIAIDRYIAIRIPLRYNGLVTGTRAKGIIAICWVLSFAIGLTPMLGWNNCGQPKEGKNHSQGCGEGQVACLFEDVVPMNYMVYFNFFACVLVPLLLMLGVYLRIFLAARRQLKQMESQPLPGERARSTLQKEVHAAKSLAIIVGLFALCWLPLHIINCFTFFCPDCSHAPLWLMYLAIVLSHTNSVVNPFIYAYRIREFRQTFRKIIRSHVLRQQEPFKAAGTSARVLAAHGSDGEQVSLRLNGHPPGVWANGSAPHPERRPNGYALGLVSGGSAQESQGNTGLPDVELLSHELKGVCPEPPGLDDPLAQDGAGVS
SMILES,Ki ([1]; absence of GTP),Ki ([1]; presence of 1 mM GTP),GTP shift [1],"affinity for the A1 receptor ([2]; stated in words, background)","drop in affinity ([2]; A1 receptor affinity, removal of the 3'-hydroxyl group of R-PIA)",selectivity for A1 vs A2a receptors [3],affinity for A1 receptors ([1]; stated in words)
"OCC1CC(O)C(n2cnc3c(NC4CCCC4)ncnc32)O1 (stereo not shown) [3'-deoxy-CPA, reference compound]",110 ± 30 nM,470 ± 40 nM,4.3±1.2,submicromolar affinity,–,–,–
C[C@H](Cc1ccccc1)Nc1ncnc2c1ncn2[C@@H]1O[C@H](CO)C[C@H]1O [3'-deoxy-R-PIA],–,–,–,–,30 fold,–,–
"Nc1ncnc2c1ncn2[C@@H]1O[C@H](CO)C[C@H]1O [3'-deoxyadenosine, reference compound]",7120 ± 3620 nM,15200 ± 2000 nM,2.1±1.4,–,–,–,–
"O=C(N[C@@H]1[C@@H](O)[C@H](n2cnc3c(NC4CCCC4)ncnc32)O[C@@H]1CO)c1ccccc1 [a, 9-(3-Benzamido-3-deoxy-β-D-xylofuranosyl)-N^6-cyclopentyladenine]",400 ± 130 nM,310 ± 50 nM,0.80±0.13,–,–,–,–
"Cc1ccc(C(=O)N[C@@H]2[C@@H](O)[C@H](n3cnc4c(NC5CCCC5)ncnc43)O[C@@H]2CO)cc1 [b, 9-[3-Deoxy-3-(4-methylbenzamido)-β-D-xylofuranosyl]-N^6-cyclopentyladenine]",83 ± 15 nM,68 ± 10 nM,0.84±0.19,–,–,–,–
"Cc1ccc(C(=O)N[C@@H]2[C@@H](O)[C@H](n3cnc4c(NC5CCCC5)ncnc43)O[C@@H]2CO)cc1C [c, 9-[3-Deoxy-3-(3,4-dimethylbenzamido)-β-D-xylofuranosyl]-N^6-cyclopentyladenine]",23.6 ± 2.5 nM,17.4 ± 4.2 nM,0.73±0.11,–,–,160 times,–
[N-]=[N+]=NC1C(CO)OC(n2cnc3c(NC4CCCC4)ncnc32)C1O (stereo not shown) [compound 3],–,–,–,–,–,–,relatively poor affinity
"O=C(N[C@@H]1[C@@H](O)[C@H](n2cnc3c(NC4CCCC4)ncnc32)O[C@@H]1CO)c1ccc(Cl)c(Cl)c1 [d, 9-[3-Deoxy-3-(3,4-dichlorobenzamido)-β-D-xylofuranosyl]-N^6-cyclopentyladenine]",32.5 ± 0.31 nM,23.7 ± 1.4 nM,0.73±0.09,–,–,–,–
